Values quoted from earlier work, collected in patent US10881615B2, “Pharmaceutical composition comprising dabigatran etexilate, and preparation method, solid preparation and use thereof” (Chia Tai Tianqing Pharmaceutical Group Co., Ltd., priority 2014, dated 2021).

Details: medium at pH of >4.0

Solubility: almost insoluble
Compound: CCCCCCOC(=O)NC(=N)c1ccc(NCc2nc3cc(C(=O)N(CCC(=O)OCC)c4ccccn4)ccc3n2C)cc1 [dabigatran etexilate, 3-[(2-{[4-(hexyloxycarbonylamino-imino-methyl)-phenylamino]-methyl}-1-methyl-1H-benzimidazol-5-yl-carbonyl)-pyridin-2-yl-amino]-ethyl propionate]
